The text below walks through data of patent US20070207952A1, “Long Acting Biologically Active Conjugates” (priority 2003, published 2007).

Where a SMILES comes first, the peptide text is derived from it. [ ]: non-standard residue; d: D form. The star is where a group is joined. Propanoyl(3-maleimido) = O=C1C=CC(=O)N1CCC(=O)*; Nle = CCCC[C@H](N)C(=O)O; AEEA = NCCOCCOCC(=O)O

As usually defined, the IC50 is the midpoint of a concentration-inhibition curve. Low values mean greater potency in that assay, high ones weaker potency in that assay. As a reminder, the half-life is the time in which the quantity being followed falls by half.

One data set relates to HBX2 HIV-1. The experiment in a line: Antiviral cytotoxicity assay with MT4 cells, modified peptides and conjugates. The class given is cell-based. The settings on record: HBX2 HIV-1, MT4 cells; average of 2-3 experiments. Here is the method:
(§1) Antiviral potency of the peptides was analyzed against HIV-1 HXB2 or NLA-3 strains using a cytotoxicity assay with MT4 cells as previously described (ref 1-3) with minor modifications. MT-4 cells (1.5×10^4/ml) were exposed to 200 50% tissue culture infective doses (TCID50) of viruses in the presence of various concentrations of test compound in 96 well microtiter plates and incubated at 37° C. for 5 days. Cytotoxicity of HIV was measured by the addition of 3-(4,5-dimethylthiazol-2-yl)-2,5-diphenytetrazolium bromide (MMI) solution to each well to a final concentration of 0.75 mg/ml, and incubation for 1 hour a 37° C. After incubation, cells were dissolved in isopropanoyrriton-X 100/HCl (1000:50:25) solution. Absorbance was monitored in a microplate reader (Spectramax, Molecular Devices) at 540 rm and 690 nm. MT-4 cells were obtained from the AIDS Research and Reference Reagent Program (ARRRP, Division of AIDS, NIAID, NIH: MT-4 from Dr. D. Richman). Cells were propagated in RPMI 1640 growth medium supplemented with 10% fetal bovine serum, 50U of penicillin and 50 μg of streptomycin per ml ([Ivitrogen, Carlsbad Calif.).

The subject of a further data set is HIV NL4-3. The experiment in a line: Antiviral cytotoxicity (MTT) assay with MT4 cells, HIV NL4-3. The data set is classed as cell-based, HIV-1. The settings on record: MT-4 cells, 5 days, average of 2 or 3 experiments. Here is the method:
as §1

The conditions of data set [1]: Kilby et al 1998; cited from earlier work.
The next data set concerns HIV-1 IIIB. The experiment in a line: Antiviral cytotoxicity (MTT) assay with MT4 cells, HIV-1 IIIB. The data set is classed as cell-based. The following applies: MT-4 cells, 5 days, average of 2 or 3 experiments.

`CCCC[C@H](NC(=O)[C@H](Cc1c[nH]c2ccccc12)NC(=O)COCCOCCNC(=O)CCN1C(=O)C=CC1=O)C(=O)N[C@@H](CCC(=O)O)C(=O)N[C@@H](Cc1c[nH]c2ccccc12)C(=O)N[C@@H](CC(=O)O)C(=O)N[C@@H](CCCNC(=N)N)C(=O)N[C@@H](CCCCN)C(=O)N[C@H](C(=O)N[C@@H](CCC(=O)O)C(=O)N[C@@H](CCC(=O)O)C(=O)N[C@@H](Cc1ccc(O)cc1)C(=O)N[C@H](C(=O)N[C@@H](CCCCN)C(=O)N[C@@H](CCCCN)C(=O)N[C@H](C(=O)N[C@@H](CCCCN)C(=O)N[C@@H](CCCCN)C(=O)N[C@@H](CC(C)C)C(=O)N[C@H](C(=O)N[C@@H](CCC(=O)O)C(=O)N[C@@H](CCC(=O)O)C(=O)N[C@@H](CO)C(=O)N[C@@H](CCC(N)=O)C(=O)N[C@@H](CCC(=O)O)C(=O)N[C@@H](CCC(N)=O)C(=O)N[C@@H](CCC(N)=O)C(=O)N[C@@H](CCC(=O)O)C(=O)N[C@@H](CCCCN)C(=O)N[C@@H](CC(N)=O)C(=O)N[C@@H](CCC(=O)O)C(=O)N[C@@H](CCCCN)C(=O)N[C@@H](CCC(=O)O)C(=O)N[C@@H](CC(C)C)C(=O)N[C@@H](CCCCN)C(N)=O)[C@@H](C)CC)[C@@H](C)CC)[C@@H](C)O)[C@@H](C)CC` [SPI-70038] ({Propanoyl(3-maleimido)-AEEA}-W[Nle]EWDRKIEEYTKKIKKLIEESQEQQEKNEKELK-NH2): in the data set with HBX2 HIV-1, the 50% inhibitory concentration (IC50) came out at 2 nM.
Regarding enfuvirtide, the values for the IC50 in the data set with HIV NL4-3 and in the data set with HIV-1 IIIB were 120 nM and 4.7 nM, respectively. In data set [1], the half-life is 1.8 h.
For `CCCC[C@H](NC(=O)[C@H](Cc1c[nH]c2ccccc12)NC(C)=O)C(=O)N[C@@H](CCC(=O)O)C(=O)N[C@@H](Cc1c[nH]c2ccccc12)C(=O)N[C@@H](CC(=O)O)C(=O)N[C@@H](CCCNC(=N)N)C(=O)N[C@@H](CCCCN)C(=O)N[C@H](C(=O)N[C@@H](CCC(=O)O)C(=O)N[C@@H](CCC(=O)O)C(=O)N[C@@H](Cc1ccc(O)cc1)C(=O)N[C@H](C(=O)N[C@@H](CCCCN)C(=O)N[C@@H](CCCCN)C(=O)N[C@H](C(=O)N[C@@H](CCC(=O)O)C(=O)N[C@@H](CCC(=O)O)C(=O)N[C@@H](CC(C)C)C(=O)N[C@H](C(=O)N[C@@H](CCCCN)C(=O)N[C@@H](CCCCN)C(=O)N[C@@H](C)C(=O)N[C@@H](CCC(N)=O)C(=O)N[C@@H](CCC(=O)O)C(=O)N[C@@H](CCC(N)=O)C(=O)N[C@@H](CCC(N)=O)C(=O)N[C@@H](CCC(=O)O)C(=O)N[C@@H](CCCCN)C(=O)N[C@@H](CC(N)=O)C(=O)N[C@@H](CCC(=O)O)C(=O)N[C@@H](CCCCN)C(=O)N[C@@H](CCC(=O)O)C(=O)N[C@@H](CC(C)C)C(=O)N[C@@H](CCCCN)C(N)=O)[C@@H](C)CC)[C@@H](C)CC)[C@@H](C)O)[C@@H](C)CC` [peptide 11, Ac-WXEWDRKIEEYTKKIEELIKKAQEQQEKNEKELK-NH2] (Ac-W[Nle]EWDRKIEEYTKKIEELIKKAQEQQEKNEKELK-NH2), the IC50 was determined as 1.1 nM with HIV NL4-3 and 2.1 nM in the data set with HIV-1 IIIB.
As for `CCCC[C@H](NC(=O)[C@H](Cc1c[nH]c2ccccc12)NC(C)=O)C(=O)N[C@@H](CCC(=O)O)C(=O)N[C@@H](Cc1c[nH]c2ccccc12)C(=O)N[C@@H](CC(=O)O)C(=O)N[C@@H](CCCNC(=N)N)C(=O)N[C@@H](CCCCN)C(=O)N[C@H](C(=O)N[C@@H](CCC(=O)O)C(=O)N[C@@H](CCC(=O)O)C(=O)N[C@@H](Cc1ccc(O)cc1)C(=O)N[C@H](C(=O)N[C@@H](CCCCN)C(=O)N[C@@H](CCCCN)C(=O)N[C@H](C(=O)N[C@@H](CCCCN)C(=O)N[C@@H](CCCCN)C(=O)N[C@@H](CC(C)C)C(=O)N[C@H](C(=O)N[C@@H](CCC(=O)O)C(=O)N[C@@H](CCC(=O)O)C(=O)N[C@@H](CO)C(=O)N[C@@H](CCC(N)=O)C(=O)N[C@@H](CCC(=O)O)C(=O)N[C@@H](CCC(N)=O)C(=O)N[C@@H](CCC(N)=O)C(=O)N[C@@H](CCC(=O)O)C(=O)N[C@@H](CCCCN)C(=O)N[C@@H](CC(N)=O)C(=O)N[C@@H](CCC(=O)O)C(=O)N[C@@H](CCCCN)C(=O)N[C@@H](CCC(=O)O)C(=O)N[C@@H](CC(C)C)C(=O)N[C@@H](CCCCN)C(N)=O)[C@@H](C)CC)[C@@H](C)CC)[C@@H](C)O)[C@@H](C)CC` [peptide 6, Ac-WXEWDRKIEEYTKKIKKLIEESQEQQEKNEKELK-NH2] (Ac-W[Nle]EWDRKIEEYTKKIKKLIEESQEQQEKNEKELK-NH2), the figures for the IC50 with HIV NL4-3 and with HIV-1 IIIB were 1.2 nM and 2.4 nM, respectively.
On the same counts, the results for `CCCC[C@H](NC(=O)[C@H](Cc1c[nH]c2ccccc12)NC(C)=O)C(=O)N[C@@H](CCC(=O)O)C(=O)N[C@@H](Cc1c[nH]c2ccccc12)C(=O)N[C@@H](CC(=O)O)C(=O)N[C@@H](CCCNC(=N)N)C(=O)N[C@@H](CCCCN)C(=O)N[C@H](C(=O)N[C@@H](CCC(=O)O)C(=O)N[C@@H](CCC(=O)O)C(=O)N[C@@H](Cc1ccc(O)cc1)C(=O)N[C@H](C(=O)N[C@@H](CCCCN)C(=O)N[C@@H](CCCCN)C(=O)N[C@H](C(=O)N[C@@H](CCCCN)C(=O)N[C@@H](CCCCN)C(=O)N[C@@H](CC(C)C)C(=O)N[C@H](C(=O)N[C@@H](CCC(=O)O)C(=O)N[C@@H](CCC(=O)O)C(=O)N[C@@H](C)C(=O)N[C@@H](CCC(N)=O)C(=O)N[C@@H](CCC(=O)O)C(=O)N[C@@H](CCC(N)=O)C(=O)N[C@@H](CCC(N)=O)C(=O)N[C@@H](CCC(=O)O)C(=O)N[C@@H](CCCCN)C(=O)N[C@@H](CC(N)=O)C(=O)N[C@@H](CCC(=O)O)C(=O)N[C@@H](CCCCN)C(=O)N[C@@H](CCC(=O)O)C(=O)N[C@@H](CC(C)C)C(=O)N[C@@H](CCCCN)C(N)=O)[C@@H](C)CC)[C@@H](C)CC)[C@@H](C)O)[C@@H](C)CC` [peptide 8, Ac-WXEWDRKIEEYTKKIKKLIEEAQEQQEKNEKELK-NH2] (Ac-W[Nle]EWDRKIEEYTKKIKKLIEEAQEQQEKNEKELK-NH2) are 1.2 nM and 2.6 nM.
